# Data published in patent publication US7906486B2, “Method of treating or preventing tissue deterioration, injury or damage due to disease of mucosa” (SciClone Pharmaceuticals, Inc., priority 2007, dated 2011).
# Several values for one entry are separate records, joined by “and”; a condition that tells them apart may be missing. Equal entries are not always repeated.
# Tested on: oral mucositis induced by acute radiation (40 Gy, left buccal cheek pouch)
# Assay: Oral mucositis induced by acute radiation in hamsters, mucositis scoring (Example 2, SCI-02)
# Type: in vivo, Syrian Golden Hamsters
# Design: key to peak mean mucositis score: 0 = normal to 5 = severe ulceration (visual scale); key to Mucositis score: 0: Pouch completely healthy. No erythema or vasodilation.; 1: Light to severe erythema and vasodilation. No erosion of mucosa.; 2: Severe erythema and vasodilation. Erosion of superficial aspects of mucosa leaving denuded areas. Decreased stippling of mucosa.; 3: Formation of off-white ulcers in one or more places. Ulcers may have a yellow/gray due to pseudomembrane. Cumulative size of ulcers should equal about ¼ of the pouch. Severe erythema and vasodilation.; 4: Cumulative seize of ulcers should equal about ½ of the pouch. Loss of pliability. Severe erythema and vasodilation.; 5: Virtually all of pouch is ulcerated. Loss of pliability (pouch can only partially be extracted from mouth)
# Details: for % Days >=3 / Days <3 / Days >=3 / Chi Sq v control: sc, days -1 to 20; for Mucositis score: Group 2 (SCV-07 100 μg/kg once daily, days -1 to 20), individual animals, two scores per animal; for Days >=3: animal days with mucositis score of three or more; for Chi Sq v control: days with score >=3
# Description: The acute radiation model in hamsters, developed by the Principle Investigator, has proven to be an accurate, efficient and cost-effective technique to provide a preliminary evaluation of anti-mucositis compounds. The course of mucositis in this model is well defined and results in peak scores approximately 14-16 Days following radiation. The acute model has little systemic toxicity, resulting in few hamster deaths, thus permitting the use of smaller groups (N=7-8) for initial efficacy studies. It has also been used to study specific mechanistic elements in the pathogenesis of mucositis. Molecules that show efficacy in the acute radiation model may be further evaluated in the more complex models of fractionated radiation, chemotherapy, or concomitant therapy.
# In this study, an acute radiation dose of 40 Gy on day 0 was administered. Clinically significant mucositis was observed on days 12 through 28.
# Forty (40) Syrian Golden Hamsters were given an acute radiation dose of 40 Gy directed to their left buccal cheek pouch on day 0. Test material SCV-07 was given by sub-cutaneous injection at 100 μg/kg or 1 mg/kg once or twice daily. Dosing began one day before radiation (day −1) and continued until day 20. Mucositis was evaluated clinically starting on day 6, and continuing on alternate days until day 28.
# The grade of mucositis was scored, beginning day 6, and for every second day thereafter, through and including day 28. The effect on mucositis of each drug treatment compared to placebo was assessed according to the following parameters:
# On each evaluation day, the number of animals with a blinded mucositis score of ≧3 in each drug treatment group was compared to the control group. Differences were compared on a cumulative basis and statistical significance was determined by chi-square analysis. Efficacy, in this analysis, is defined by a significant reduction in the number of days that a group of animals had ulcerations (scores ≧3) when compared to the control group. This same test was also used to evaluate differences between different drug treatment groups.
# For each evaluation day the scores of the control group were compared to those of the treated groups using non-parametric rank sum analysis. Treatment success was considered as a statistically significant lowering of scores in the treated group on 2 or more days from day 6 to day 28.
# Forty Syrian Golden Hamsters were divided into five (5) groups of eight (8) animals each. All animals received a single dose of acute radiation of 40 Gy directed to their left buccal cheek pouch on day 0. This was accomplished by anesthetizing the animals and everting the left buccal pouch, while protecting the rest of the animals with a lead shield. Test materials were given by sub-cutaneous injection once daily as detailed in Table 5. Mucositis was evaluated clinically starting on Day 6, and continuing on alternate days until day 28.
# Mucositis was induced using a standardized acute radiation protocol. A single dose of radiation (40 Gy/dose) was administered to all animals on day 0. Radiation was generated with a 160 kilovolt potential (15-ma) source at a focal distance of 30 cm, hardened with a 0.35 mm Cu filtration system. Irradiation targeted the left buccal pouch mucosa at a rate of 3.2 Gy/minute. Prior to irradiation, animals were anesthetized with an intraperitoneal injection of Ketamine (160 mg/kg) and Xylazine (8 mg/kg). The left buccal pouch was everted, fixed and isolated using a lead shield to protect all other parts of the hamster's body.
# The mucositis score, weight change and survival were measured throughout the study as described above. For the evaluation of mucositis, the animals were anesthetized with an inhalation anesthetic, and the left pouch everted. Mucositis was scored visually by comparison to a validated photographic scale, ranging from 0 for normal, to 5 for severe ulceration (clinical scoring). In descriptive terms, this scale is defined as follows: […]
# [1] = 100 ug/kg once daily from day -1 to 20
# [2] = 1 mg/kg once daily from day -1 to 20
# [3] = 1 mg/kg twice daily from day -1 to 20
compound,measurement,setting,value
"N[C@H](CCC(=O)N[C@@H](Cc1c[nH]c2ccccc12)C(=O)O)C(=O)O [SCV-07, γ-D-glutamyl-L-tryptophan]",day of peak mean mucositis score,[1],16
same,peak mean mucositis score,[1],2.2
same,peak mean mucositis score,100 ug/kg twice daily from day -1 to 20,2.5
same,% Days >=3,"100 ug/kg, bid",8.9%
same,Days <3,"100 ug/kg, bid",175
same,% Days >=3,"100 ug/kg, qd",6.3%
same,Days <3,"100 ug/kg, qd",180
same,day of peak mean mucositis score,[2],14
same,peak mean mucositis score,[2],2.9
same,improvement in daily mucositis scores relative to controls (Mann-Whitney rank sum),"1 mg/kg once daily on days -1 to 20, any day of the study",no significant improvement in mucositis on any day
same,day of peak mean mucositis score,[3],14
same,peak mean mucositis score,[3],2.6
same,% Days >=3,"1 mg/kg, bid",12.5%
same,Days <3,"1 mg/kg, bid",168
same,% Days >=3,"1 mg/kg, qd",28.1%
same,Days <3,"1 mg/kg, qd",138
same,Mucositis score,day 6,1 (6×) and 0 (2×)
same,Mucositis score,day 8,1
same,Mucositis score,day 10,2 (4×) and 1 (4×)
same,Mucositis score,day 12,2 (7×) and 3
same,Mucositis score,day 14,2
same,Mucositis score,day 16,2
same,Mucositis score,day 18,2 (5×) and 3 (2×) and 1
same,Mucositis score,day 20,2 (6×) and 3 (2×)
same,Mucositis score,day 22,1 (2×) and 2 (7×)
same,Mucositis score,day 24,1 (3×) and 2 (6×)
same,Mucositis score,day 26,1 (2×) and 2 (7×)
same,Mucositis score,day 28,1 (7×) and 2 (2×)
same,Days >=3,"100 ug/kg, bid",17
same,Days >=3,"100 ug/kg, qd",12
same,Days >=3,"1 mg/kg, bid",24
same,Days >=3,"1 mg/kg, qd",54
same,"P, number of animal days with a score of 3 or higher, 100 ug/kg once daily vs 1 mg/kg twice daily","chi-squared test, no statistically significant difference",0.054
same,Chi Sq v control,"100 ug/kg, bid",21.4010
same,Chi Sq v control,"100 ug/kg, qd",27.828
same,Chi Sq v control,"1 mg/kg, bid",12.7360
same,Chi Sq v control,"1 mg/kg, qd",0.0000
